Earlier results on one molecule are cited in patent publication US20060166974A1, “Azabenzoxazoles for the treatment of CNS disorders” (Pfizer Inc., priority 2004, published 2006).

`O=C1Cc2cc(CCN3CCN(c4nsc5ccccc45)CC3)c(Cl)cc2N1` [Ziprasidone, 5-[2-[4-(1,2-benzisothiazol-3-yl)piperazin-1-yl]ethyl]-6-chloroindolin-2-one]: for the setting “in vivo”, the half-life was 6 to 7 h and the protein binding entry is “extensive”. Also, the Oral bioavailability entry (taken with food) is “approximately 60%”.

Usually half-life stands for the time in which the quantity being followed falls by half.
